Like-named read-outs stand apart in the source and are kept apart here.
Columns and labels:
[1] = tested on: panel of 55 breast cancer cell lines; assay: Cell growth inhibition assay (Cell Titer Glo, 72 h, 9 doses; GI50, TGI, LC50); type: cell-based, human; conditions: Homo sapiens, read-out: GI50 (converted)
[2] = tested on: luminal, basal, claudin-low and ERBB2AMP breast cancer cell lines; assay: Associations of clinically relevant subtypes and response (non-parametric ANOVA or t-test on GI50 ranks); type: cell-based, human
Outline: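 GI50 values were compared between cell-line subtype groups by non-parametric ANOVA or t-test on ranks. P-values from three test sets were combined and FDR-corrected. Significant three-group effects were followed by post-hoc comparison of each group against all others, and FDR p<0.20 counted as significant.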

## CC(=O)O[C@@]12CO[C@@H]1C[C@H](O)[C@@]1(C)C(=O)[C@H](O)C3=C(C)[C@@H](OC(=O)[C@H](O)[C@@H](NC(=O)OC(C)(C)C)c4ccccc4)C[C@@](O)([C@@H](OC(=O)c4ccccc4)[C@H]21)C3(C)C [Docetaxel]
[1]; 600MPE cell line, censored GI50 values
  GI50: 97.7 nM
[1]; AU565, AU565 cell line, censored GI50 values
  GI50: 5.25 nM
[1]; AU565, cell line AU565
  GI50: 5.25 nM
[1]; BT-474, BT474 cell line, censored GI50 values
  GI50: 6.31 nM
[1]; BT-474, cell line BT474
  GI50: 6.31 nM
[1]; BT-483, BT483 cell line, censored GI50 values
  GI50: 23.4 nM
[1]; BT-483, cell line BT483
  GI50: 23.4 nM
[1]; CAMA-1, CAMA1 cell line, censored GI50 values
  GI50: 5.62 nM
[1]; CAMA-1, cell line CAMA1
  GI50: 5.62 nM
[1]; HCC38, HCC38 cell line, censored GI50 values
  GI50: 2.04 nM
[1]; HCC38, cell line HCC38
  GI50: 2.04 nM
[1]; HCC70, HCC70 cell line, censored GI50 values
  GI50: 5.13 nM
[1]; HCC70, cell line HCC70
  GI50: 5.13 nM
[1]; HCC202, HCC202 cell line, censored GI50 values
  GI50: 3.72 nM
[1]; HCC202, cell line HCC202
  GI50: 3.72 nM
[1]; HCC1143, HCC1143 cell line, censored GI50 values
  GI50: 11 nM
[1]; HCC1143, cell line HCC1143
  GI50: 11 nM
[1]; HCC1187, HCC1187 cell line, censored GI50 values
  GI50: 2.51 nM
[1]; HCC1187, cell line HCC1187
  GI50: 2.51 nM
[1]; HCC1395, HCC1395 cell line, censored GI50 values
  GI50: 5.62 nM
[1]; HCC1395, cell line HCC1395
  GI50: 5.62 nM
[1]; HCC1419, HCC1419 cell line, censored GI50 values
  GI50: 16.6 nM
[1]; HCC1419, cell line HCC1419
  GI50: 16.6 nM
[1]; HCC1428, HCC1428 cell line, censored GI50 values
  GI50: 5010 nM
[1]; HCC1428, cell line HCC1428
  GI50: 5010 nM
[1]; HCC1500, HCC1500 cell line, censored GI50 values
  GI50: 2.75 nM
[1]; HCC1500, cell line HCC1500
  GI50: 2.75 nM
[1]; HCC1806, HCC1806 cell line, censored GI50 values
  GI50: 2.57 nM
[1]; HCC1806, cell line HCC1806
  GI50: 2.57 nM
[1]; HCC1954, HCC1954 cell line, censored GI50 values
  GI50: 1.66 nM
[1]; HCC1954, cell line HCC1954
  GI50: 1.66 nM
[1]; HCC2185 cell line, censored GI50 values
  GI50: 3.02 nM
[1]; HCC3153 cell line, censored GI50 values
  GI50: 9.77 nM
[1]; LY2 cell line, censored GI50 values
  GI50: 4.27 nM
[1]; MCF7, MCF7 cell line, censored GI50 values
  GI50: 12.3 nM
[1]; MCF7, cell line MCF7
  GI50: 12.3 nM
[1]; MDA-MB-134-VI, MDAMB134VI cell line, censored GI50 values
  GI50: 23.4 nM
[1]; MDA-MB-175-VII, MDAMB175VII cell line, censored GI50 values
  GI50: 15.8 nM
[1]; MDA-MB-231, MDAMB231 cell line, censored GI50 values
  GI50: 2.82 nM
[1]; MDA-MB-231, cell line MDAMB231
  GI50: 2.82 nM
[1]; MDA-MB-361, MDAMB361 cell line, censored GI50 values
  GI50: 5.62 nM
[1]; MDA-MB-361, cell line MDAMB361
  GI50: 5.62 nM
[1]; MDA-MB-415, MDAMB415 cell line, censored GI50 values
  GI50: 2.88 nM
[1]; MDA-MB-415, cell line MDAMB415
  GI50: 2.88 nM
[1]; MDA-MB-436, MDAMB436 cell line, censored GI50 values
  GI50: 17 nM
[1]; MDA-MB-436, cell line MDAMB436
  GI50: 17 nM
[1]; MDA-MB-453, MDAMB453 cell line, censored GI50 values
  GI50: 4.37 nM
[1]; MDA-MB-453, cell line MDAMB453
  GI50: 4.37 nM
[1]; MDA-MB-468, MDAMB468 cell line, censored GI50 values
  GI50: 2.88 nM
[1]; MDA-MB-468, cell line MDAMB468
  GI50: 2.88 nM
[1]; SK-BR-3, SKBR3 cell line, censored GI50 values
  GI50: 7.59 nM
[1]; SK-BR-3, cell line SKBR3
  GI50: 7.59 nM
[1]; SUM52PE, SUM52PE cell line, censored GI50 values
  GI50: 1.82 nM
[1]; SUM52PE, cell line SUM52PE
  GI50: 1.82 nM
[1]; SUM149PT, SUM149PT cell line, censored GI50 values
  GI50: 1.74 nM
[1]; SUM149PT, cell line SUM149PT
  GI50: 1.74 nM
[1]; SUM185PE, SUM185PE cell line, censored GI50 values
  GI50: 5010 nM
[1]; SUM185PE, cell line SUM185PE
  GI50: 5010 nM
[1]; SUM1315MO2, SUM1315MO2 cell line, censored GI50 values
  GI50: 2.95 nM
[1]; SUM-159-PT, SUM159PT cell line, censored GI50 values
  GI50: 4.57 nM
[1]; SUM-159-PT, cell line SUM159PT
  GI50: 4.57 nM
[1]; UACC-812, UACC812 cell line, censored GI50 values
  GI50: 3.24 nM
[1]; UACC-812, cell line UACC812
  GI50: 3.24 nM
[1]; UACC-893, UACC893 cell line, censored GI50 values
  GI50: 11.5 nM
[1]; UACC-893, cell line UACC893
  GI50: 11.5 nM
[1]; ZR-75-1, ZR751 cell line, censored GI50 values
  GI50: 28.2 nM
[1]; ZR-75-1, cell line ZR751
  GI50: 28.2 nM
[1]; ZR-75-30, ZR7530 cell line, censored GI50 values
  GI50: 3.98 nM
[1]; ZR-75-30, cell line ZR7530
  GI50: 3.98 nM
[1]; ZR-75B, ZR75B cell line, censored GI50 values
  GI50: 15.5 nM
[1]; ZR-75B, cell line ZR75B
  GI50: 15.5 nM
[1]; cell line 600MPE
  GI50: 97.7 nM
[1]; cell line HCC2185
  GI50: 3.02 nM
[1]; cell line HCC3153
  GI50: 9.77 nM
[1]; cell line LY2
  GI50: 4.27 nM
[1]; cell line MDAMB134V
  GI50: 23.4 nM
[1]; cell line MDAMB175V
  GI50: 15.8 nM
[1]; cell line SUM1315MO
  GI50: 2.95 nM
[2]; GI50 across subtypes
  subtype-specific response (sensitivity by transcriptional subtype): preferential activity in basal and/or claudin-low cell lines
[2]; Table 6, most sensitive subtype, FDR p<0.20
  Subtype specificity: Basal

Source: US10770169B2, “Method of providing a treatment to a subject based on a dynamic pathway map” (THE REGENTS OF THE UNIVERSITY OF CALIFORNIA, priority 2010, dated 2020)
